Results taken from patent publication US20050132448A1, “Assay for beta cell toxic macrolides” (priority 2001, published 2005).

Test system: C57B1/6J mice
Assay: Size and number of pancreatic islets after vATPase inhibitors
Assay type: in vivo
Details: for No. islets per mm^2 pancreas section / Median size: day 84, 5 daily doses of 12 ng/g body weight; for effect on islet number and size: i.p. 12 ng/gram body weight; for Median size: insulin-positive islets
Procedure: The effect of vATPase inhibitors on the size and number of pancreatic islets was analysed in C57B1/6J using either bafilomycin A1 (BA1) or concanamycin A (CMA). The effect of Streptozotocin, an islet beta-cell specific toxin produced by Streptomyces achromogenes was also examined, to enable comparison with the effect of vATPase inhibitors.
Groups of 4 female C57B1/6J mice were injected with 5 doses on 5 consecutive days of 12 ng/g body weight BA1, CMA or the well characterised islet β-cell toxin streptozotocin. Pancreases were removed on day 84 and 3 formalin-fixed sections per mouse were immunostained for insulin. The area of insulin-positive islets was measured on digital images using MCID software.

| Structure (SMILES) | No. islets per mm^2 pancreas section [per mm^2 pancreas section] | effect on islet number and size | Median size [μm^2] |
| --- | --- | --- | --- |
| C/C=C/[C@H]1O[C@@](O)([C@@H](C)[C@H](O)[C@H](C)[C@H]2OC(=O)/C(OC)=C/C(C)=C/[C@@H](C)[C@@H](O)[C@@H](CC)[C@@H](O)[C@H](C)C/C(C)=C/C=C/[C@@H]2OC)C[C@@H](O[C@H]2C[C@@H](O)[C@H](OC(N)=O)[C@@H](C)O2)[C@@H]1C [CMA, concanamycin A] | 0.78 | increased the number of small islets | 3170 |
| CN(N=O)C(=O)N[C@H]1C(O)O[C@H](CO)[C@@H](O)[C@@H]1O (mixture of isomers) [Streptozotocin] | 0.46 | reduces the number of islets but does not induce the formation of new islets | 5890 |
